In series [1] the target is T1, Human Neuropeptide Y2 Receptor (Homo sapiens, UniProt P49146).
T1 construct: purchased CHEMICON HTS066M
T1 sequence (P49146 1-381): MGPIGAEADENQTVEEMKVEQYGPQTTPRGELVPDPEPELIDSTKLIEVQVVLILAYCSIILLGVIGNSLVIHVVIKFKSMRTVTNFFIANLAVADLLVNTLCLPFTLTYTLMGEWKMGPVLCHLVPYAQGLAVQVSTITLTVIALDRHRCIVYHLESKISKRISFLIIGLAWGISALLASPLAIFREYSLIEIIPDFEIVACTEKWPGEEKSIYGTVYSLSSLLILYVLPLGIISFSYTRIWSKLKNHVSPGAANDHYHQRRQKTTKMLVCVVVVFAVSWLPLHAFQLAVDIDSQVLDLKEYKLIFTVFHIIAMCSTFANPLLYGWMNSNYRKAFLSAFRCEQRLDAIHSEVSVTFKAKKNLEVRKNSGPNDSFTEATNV
Nature of the series: Radioligand binding competition assay (RLB). Particulars: Table 3, 125I-PYY(1-36) competition; read-out: Ki. In short, it runs like this: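 IC50 values come from sigmoidal dose-response fits of scintillation counts after peptides competed for radioligand binding at receptor membranes (0.5 μg protein/well). Incubation ran 2 h at room temperature in HEPES buffer, pH 7.4, with Mg2+, Ca2+ and 0.2% ovalbumin.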

A further series in a line: Solubility determination. Particulars: for Sol6: pH 6; for Sol7: pH 7. In short, it runs like this: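 Sample: TFA-salt peptide at 10 mg/ml target in 0.1 M Na diphosphate, pH 6.4 or 7.0, shaken 2 h RT, filtered, diluted to 1 mg/ml.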

As usually defined, the Ki is a dissociation constant, usually derived from enzyme kinetics or from competition with a known ligand.

As to `CC[C@H](C)[C@H](NC(=O)[C@H](CCC(=O)O)NC(=O)[C@H](CCC(=O)O)NC(=O)[C@@H]1CCCN1C(=O)[C@H](CO)NC(=O)[C@H](C)NC(=O)[C@H](C)NC(=O)[C@H](CCC(=O)O)NC(=O)[C@@H]1CCCN1C(=O)[C@@H]1CCCN1C(=O)[C@H](CCCCNC(=O)CCCCCNC(=O)CC[C@H](NC(=O)CCCCCCCCCCCCCCCCC(=O)O)C(=O)O)NC(=O)[C@H](CCC(=O)O)NC(=O)[C@@H]1CCCN1C(=O)[C@H](C)NC(=O)CC(C)C)C(=O)N[C@@H](CCC(N)=O)C(=O)N[C@@H](CCCNC(=N)N)C(=O)N[C@@H](Cc1ccc(O)cc1)C(=O)N[C@@H](Cc1ccc(O)cc1)C(=O)N[C@H](C(=O)N[C@@H](C)C(=O)N[C@@H](CC(C)C)C(=O)N[C@@H](CCCNC(=N)N)C(=O)N[C@@H](Cc1c[nH]cn1)C(=O)N[C@@H](Cc1ccc(O)cc1)C(=O)N[C@@H](Cc1ccc(O)cc1)C(=O)N[C@@H](CC(N)=O)C(=O)N[C@@H](Cc1c[nH]c2ccccc12)C(=O)N[C@@H](CC(C)C)C(=O)N[C@H](C(=O)N[C@@H](CCCNC(=N)N)C(=O)N[C@@H](CCC(N)=O)C(=O)N[C@@H](CCCNC(=N)N)C(=O)N[C@@H](Cc1ccc(O)cc1)C(N)=O)[C@@H](C)O)C(C)C` [Compound 158, N{alpha-4}-(3-methylbutanoyl)-N{epsilon-7}-(6-[(4S)-4-carboxy-4-(17-carboxyheptadecanamido)butanamido]hexanoyl)-[4A,7K,9P,11A,17I,18Q,22V,23A,28Y,30W,31L]-hPYY(4-36)], the Ki in series [1] is 0.58 nM. In “Solubility determination”, the “Sol6” value came out at 0.0 mg/mL and the “Sol7” value came to 0.4 mg/mL.

Consider `CC(C)CC(=O)N[C@@H](C)C(=O)N1CCC[C@H]1C(=O)N[C@@H](C)C(=O)N[C@@H](CCCCNC(=O)CCCCCNC(=O)CC[C@H](NC(=O)CCCCCCCCCCCCCCCCC(=O)O)C(=O)O)C(=O)N1CCC[C@H]1C(=O)N[C@@H](CCC(=O)O)C(=O)N[C@@H](CCC(=O)O)C(=O)N[C@@H](CC(=O)O)C(=O)N[C@@H](C)C(=O)N[C@@H](CO)C(=O)N1CCC[C@H]1C(=O)N[C@@H](CCC(=O)O)C(=O)N[C@@H](CCC(=O)O)C(=O)N[C@@H](CC(C)C)C(=O)N[C@@H](CCC(N)=O)C(=O)N[C@@H](CCCNC(=N)N)C(=O)N[C@@H](Cc1ccc(O)cc1)C(=O)N[C@@H](Cc1ccc(O)cc1)C(=O)N[C@H](C(=O)N[C@@H](CO)C(=O)N[C@@H](CC(C)C)C(=O)N[C@@H](CCCNC(=N)N)C(=O)N[C@@H](Cc1c[nH]cn1)C(=O)N[C@@H](CCC(N)=O)C(=O)N[C@@H](Cc1ccc(O)cc1)C(=O)N[C@@H](CC(N)=O)C(=O)N[C@@H](Cc1c[nH]c2ccccc12)C(=O)N[C@@H](CC(C)C)C(=O)N[C@H](C(=O)N[C@@H](CCCNC(=N)N)C(=O)N[C@@H](CCC(N)=O)C(=O)N[C@@H](CCCNC(=N)N)C(=O)N[C@@H](Cc1ccc(O)cc1)C(N)=O)[C@@H](C)O)C(C)C` [Compound 32, N{alpha-4}-(3-methylbutanoyl)-N{epsilon-7}-(6-[(4S)-4-carboxy-4-(17-carboxyheptadecanamido)butanamido]hexanoyl)[4A,6A,7K,9E,18Q,22V,27Q,28Y,30W,31L]-hPYY(4-36)], for which the Ki in series [1] stood at 13.6 nM. Besides, in the series “Solubility determination”, the “Sol6” value amounted to 8.2 mg/mL and the “Sol7” value turned out to be 9.3 mg/mL.

On to `CC[C@H](C)[C@H](NC(=O)[C@H](CCC(=O)O)NC(=O)[C@H](CCC(=O)O)NC(=O)[C@@H]1CCCN1C(=O)[C@H](CCC(N)=O)NC(=O)[C@H](C)NC(=O)[C@H](CC(=O)O)NC(=O)[C@H](CCC(=O)O)NC(=O)[C@H](CCC(=O)O)NC(=O)[C@@H]1CCCN1C(=O)[C@H](CCCCNC(=O)CCCCCNC(=O)CC[C@H](NC(=O)CCCCCCCCCCCCCCCCC(=O)O)C(=O)O)NC(=O)[C@H](CCC(=O)O)NC(=O)[C@@H]1CCCN1C(=O)[C@H](C)NC(=O)CC(C)C)C(=O)N[C@@H](CCC(N)=O)C(=O)N[C@@H](CCCNC(=N)N)C(=O)N[C@@H](Cc1ccc(O)cc1)C(=O)N[C@@H](Cc1ccc(O)cc1)C(=O)N[C@H](C(=O)N[C@@H](CO)C(=O)N[C@@H](CC(C)C)C(=O)N[C@@H](CCCNC(=N)N)C(=O)N[C@@H](Cc1c[nH]cn1)C(=O)N[C@@H](Cc1ccc(O)cc1)C(=O)N[C@@H](Cc1ccc(O)cc1)C(=O)N[C@@H](CC(N)=O)C(=O)N[C@@H](Cc1c[nH]c2ccccc12)C(=O)N[C@@H](CC(C)C)C(=O)N[C@H](C(=O)N[C@@H](CCCNC(=N)N)C(=O)N[C@@H](CCC(N)=O)C(=O)N[C@@H](CCCNC(=N)N)C(=O)N[C@@H](Cc1ccc(O)cc1)C(N)=O)[C@@H](C)O)C(C)C` [Compound 81, N{alpha-4}-(3-methylbutanoyl)-N{epsilon-7}-(6-[(4S)-4-carboxy-4-(17-carboxyheptadecanamido)butanamido]hexanoyl)-[4A,7K,9E,13Q,17I,18Q,22V,28Y,30W,31L]-hPYY(4-36)], for which the inhibition constant Ki in series [1] stood at 2.65 nM. Further, in “Solubility determination”, the “Sol6” value is 8.9 mg/mL and the “Sol7” value amounted to 8.9 mg/mL.

For the compound `CC[C@H](C)[C@H](NC(=O)[C@H](CCC(=O)O)NC(=O)[C@H](CCC(=O)O)NC(=O)[C@@H]1CCCN1C(=O)[C@H](CCC(=O)O)NC(=O)[C@H](C)NC(=O)[C@H](CC(=O)O)NC(=O)[C@H](CCC(=O)O)NC(=O)[C@H](CCC(=O)O)NC(=O)[C@@H]1CCCN1C(=O)[C@H](CCCCNC(=O)CCCCCNC(=O)CC[C@H](NC(=O)CCCCCCCCCCCCCCCCC(=O)O)C(=O)O)NC(=O)[C@H](CCC(=O)O)NC(=O)[C@@H]1CCCN1C(=O)[C@H](C)NC(=O)CC(C)C)C(=O)N[C@@H](CCC(N)=O)C(=O)N[C@@H](CCCNC(=N)N)C(=O)N[C@@H](Cc1ccc(O)cc1)C(=O)N[C@@H](Cc1ccc(O)cc1)C(=O)N[C@H](C(=O)N[C@@H](CO)C(=O)N[C@@H](CC(C)C)C(=O)N[C@@H](CCCNC(=N)N)C(=O)N[C@@H](Cc1c[nH]cn1)C(=O)N[C@@H](Cc1ccc(O)cc1)C(=O)N[C@@H](Cc1ccc(O)cc1)C(=O)N[C@@H](CC(N)=O)C(=O)N[C@@H](Cc1c[nH]c2ccccc12)C(=O)N[C@@H](CC(C)C)C(=O)N[C@H](C(=O)N[C@@H](CCCNC(=N)N)C(=O)N[C@@H](CCC(N)=O)C(=O)N[C@@H](CCCNC(=N)N)C(=O)N[C@@H](Cc1ccc(O)cc1)C(N)=O)[C@@H](C)O)C(C)C` [Compound 112, N{alpha-4}-(3-methylbutanoyl)-N{epsilon-7}-(6-[(4S)-4-carboxy-4-(17-carboxyheptadecanamido)butanamido]hexanoyl)-[4A,7K,9E,13E,17I,18Q,22V,28Y,30W,31L]-hPYY(4-36)], the Ki in series [1] came out at 4.28 nM. Further, in “Solubility determination”, the “Sol6” value came to 9.9 mg/mL and the “Sol7” value stood at 10.0 mg/mL.

For the compound `CC(C)CC(=O)N[C@@H](C)C(=O)N1CCC[C@H]1C(=O)N[C@@H](CCC(=O)O)C(=O)N[C@@H](CCCCNC(=O)CCCCCNC(=O)CC[C@H](NC(=O)CCCCCCCCCCCCCCCCC(=O)O)C(=O)O)C(=O)N1CCC[C@H]1C(=O)N[C@@H](CCC(=O)O)C(=O)N[C@@H](CCC(=O)O)C(=O)N[C@@H](CC(=O)O)C(=O)N[C@@H](C)C(=O)N[C@H](C(=O)N[C@@H](CO)C(=O)N[C@@H](CCC(=O)O)C(=O)N[C@@H](CCC(=O)O)C(=O)N[C@@H](CC(C)C)C(=O)N[C@@H](CCC(N)=O)C(=O)N[C@@H](CCCNC(=N)N)C(=O)N[C@@H](Cc1ccc(O)cc1)C(=O)N[C@@H](Cc1ccc(O)cc1)C(=O)N[C@H](C(=O)N[C@@H](CO)C(=O)N[C@@H](CC(C)C)C(=O)N[C@@H](CCCNC(=N)N)C(=O)N[C@@H](Cc1c[nH]cn1)C(=O)N[C@@H](Cc1ccc(O)cc1)C(=O)N[C@@H](Cc1ccc(O)cc1)C(=O)N[C@@H](CC(N)=O)C(=O)N[C@@H](Cc1c[nH]c2ccccc12)C(=O)N[C@@H](CC(C)C)C(=O)N[C@H](C(=O)N[C@@H](CCCNC(=N)N)C(=O)N[C@@H](CCC(N)=O)C(=O)N[C@@H](CCCNC(=N)N)C(=O)N[C@@H](Cc1ccc(O)cc1)C(N)=O)[C@@H](C)O)C(C)C)[C@@H](C)O` [Compound 83, N{alpha-4}-(3-methylbutanoyl)-N{epsilon-7}-(6-[(4S)-4-carboxy-4-(17-carboxyheptadecanamido)butanamido]hexanoyl)-[4A,7K,9E,13T,14S,18Q,22V,28Y,30W,31L]-hPYY(4-36)], the Ki in series [1] was found to be 6.91 nM. Moreover, in the series “Solubility determination”, the “Sol6” value came to 10.0 mg/mL and the “Sol7” value is 10.0 mg/mL.

Values taken from patent US12391737B2, “Soluble NPY2 receptor agonists” (Boehringer Ingelheim International GmbH, priority 2020, dated 2025).
